Experiment [1] concerns the target T1, full-length human ERα (Homo sapiens, UniProt P03372).
T1 sequence (P03372 1-595): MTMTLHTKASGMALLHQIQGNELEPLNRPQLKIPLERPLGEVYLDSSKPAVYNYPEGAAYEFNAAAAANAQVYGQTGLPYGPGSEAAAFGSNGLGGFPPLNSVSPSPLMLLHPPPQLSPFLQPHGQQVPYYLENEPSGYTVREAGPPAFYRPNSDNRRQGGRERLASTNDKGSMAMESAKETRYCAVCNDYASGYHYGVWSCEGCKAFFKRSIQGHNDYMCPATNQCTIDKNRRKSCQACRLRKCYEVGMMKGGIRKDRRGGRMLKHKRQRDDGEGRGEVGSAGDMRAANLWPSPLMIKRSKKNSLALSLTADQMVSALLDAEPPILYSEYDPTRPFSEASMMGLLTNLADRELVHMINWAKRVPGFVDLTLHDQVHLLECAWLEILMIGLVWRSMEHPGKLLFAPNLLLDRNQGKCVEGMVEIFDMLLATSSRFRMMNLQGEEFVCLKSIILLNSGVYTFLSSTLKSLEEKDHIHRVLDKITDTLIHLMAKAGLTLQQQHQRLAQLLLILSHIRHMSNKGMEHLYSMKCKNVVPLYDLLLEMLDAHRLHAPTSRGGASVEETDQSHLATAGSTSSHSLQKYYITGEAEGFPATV
Briefly: 3X-ERE luciferase reporter gene assay in HepG2 cells, ERα. It counts as cell-based.

The target of experiment [2] is full-length human ERβ (Homo sapiens, UniProt Q92731). As to the kind of experiment: 3X-ERE luciferase reporter gene assay in HepG2 cells, ERβ. Type of experiment: cell-based.
full-length human ERβ, sequence (Q92731 whole entry): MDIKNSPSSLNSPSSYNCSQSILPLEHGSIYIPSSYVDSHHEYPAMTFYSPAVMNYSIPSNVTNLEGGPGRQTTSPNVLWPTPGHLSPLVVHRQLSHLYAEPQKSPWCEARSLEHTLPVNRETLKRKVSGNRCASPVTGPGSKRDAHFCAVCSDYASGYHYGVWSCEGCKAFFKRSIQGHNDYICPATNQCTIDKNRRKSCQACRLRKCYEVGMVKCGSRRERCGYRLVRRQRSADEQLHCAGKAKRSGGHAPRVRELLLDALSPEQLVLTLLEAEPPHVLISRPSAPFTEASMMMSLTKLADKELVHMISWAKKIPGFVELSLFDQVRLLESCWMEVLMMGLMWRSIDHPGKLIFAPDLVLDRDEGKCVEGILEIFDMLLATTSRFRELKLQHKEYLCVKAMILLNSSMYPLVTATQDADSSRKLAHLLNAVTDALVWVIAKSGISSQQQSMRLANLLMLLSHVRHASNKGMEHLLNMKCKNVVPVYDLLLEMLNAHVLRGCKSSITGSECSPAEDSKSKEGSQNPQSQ

Bounds are passed on as bounds.

`O=S(=O)(Oc1ccccc1)[C@H]1C[C@H]2C(c3ccc(O)cc3)=C(c3ccc(O)cc3)[C@@H]1[S+]2[O-]` (relative stereo) [Compound 10a]: in experiment [1], the “ERα functional profile (in words)” value is given as “lacks ERα antagonist activity”. Moreover, in experiment [2], the EC50 (in general, the midpoint of the concentration-response curve) is > 10 µM and the “ERβ agonist activity (in words)” value is reported as “do not activate ERβ”.

As to `COc1ccc(OS(=O)(=O)[C@H]2C[C@H]3C(c4ccc(O)cc4)=C(c4ccc(O)cc4)[C@@H]2[S+]3[O-])cc1` (relative stereo) [Compound 10b], the EC50 in experiment [1] and in experiment [2] was > 10 µM in each case.

For `O=S(=O)(Oc1ccc(O)cc1)[C@H]1C[C@H]2C(c3ccc(O)cc3)=C(c3ccc(O)cc3)[C@@H]1[S+]2[O-]` (relative stereo) [Compound 10c], in experiment [2], the EC50 is > 10 µM.

`CCOC(=O)[C@@H]1[C@H](C(=O)OCC)[C@@H]2C(c3ccc(O)cc3)=C(c3ccc(O)cc3)[C@H]1[S+]2[O-]` (relative stereo) [Compound 10e]: the EC50 in experiment [1] and in experiment [2] was > 10 µM in each case.

Regarding `COc1ccc(OS(=O)(=O)[C@H]2C[C@H]3C(c4ccc(O)cc4C)=C(c4ccc(O)cc4C)[C@@H]2[S+]3[O-])cc1` (relative stereo) [Compound 11b], in experiment [2], the EC50 was > 10 µM.

As for `Cc1cc(O)ccc1C1=C(c2ccc(O)cc2C)[C@H]2[C@@H](S(=O)(=O)Oc3ccccc3F)C[C@@H]1[S+]2[O-]` (relative stereo) [Compound 11c], the EC50 in experiment [2] is > 10 µM.

In the case of `Cc1cc(O)ccc1C1=C(c2ccc(O)cc2C)[C@H]2[C@@H](S(=O)(=O)Oc3ccccc3Br)C[C@@H]1[S+]2[O-]` (relative stereo) [Compound 11e], the concentration for a half-maximal effect (EC50) in experiment [2] was > 10 µM.

As for `Cc1cc(O)ccc1C1=C(c2ccc(O)cc2C)[C@H]2[C@@H](S(=O)(=O)Oc3ccc(F)cc3)C[C@@H]1[S+]2[O-]` (relative stereo) [Compound 11f], the EC50 in experiment [2] was > 10 µM.

`Cc1cc(O)ccc1C1=C(c2ccc(O)cc2C)[C@H]2[C@@H](S(=O)(=O)Oc3ccc(Cl)cc3)C[C@@H]1[S+]2[O-]` (relative stereo) [Compound 11g]: in experiment [2], the EC50 was > 10 µM.

Take `Cc1cc(O)ccc1C1=C(c2ccc(O)cc2C)[C@H]2[C@@H](S(=O)(=O)Oc3cccc4ccccc34)C[C@@H]1[S+]2[O-]` (relative stereo) [Compound 11j]: the EC50 in experiment [2] is > 10 µM.

As to `Cc1cc(C2=C(c3ccc(O)c(C)c3)[C@H]3[C@@H](S(=O)(=O)Oc4ccccc4)C[C@@H]2[S+]3[O-])ccc1O` (relative stereo) [Compound 12a], the EC50 in experiment [2] is > 10 µM.

Take `COc1ccc(OS(=O)(=O)[C@H]2C[C@H]3C(c4ccc(O)c(C)c4)=C(c4ccc(O)c(C)c4)[C@@H]2[S+]3[O-])cc1` (relative stereo) [Compound 12b]: the EC50 in experiment [2] was > 10 µM.

In the case of `Cc1cc(C2=C(c3ccc(O)c(C)c3)[C@H]3[C@@H](S(=O)(=O)Oc4ccccc4F)C[C@@H]2[S+]3[O-])ccc1O` (relative stereo) [Compound 12c], in experiment [2], the EC50 is > 10 µM.

As to `Cc1cc(C2=C(c3ccc(O)c(C)c3)[C@H]3[C@@H](S(=O)(=O)Oc4ccccc4Cl)C[C@@H]2[S+]3[O-])ccc1O` (relative stereo) [Compound 12d], the EC50 in experiment [2] is > 10 µM.

On to `Cc1cc(C2=C(c3ccc(O)c(C)c3)[C@H]3[C@@H](S(=O)(=O)Oc4ccccc4Br)C[C@@H]2[S+]3[O-])ccc1O` (relative stereo) [Compound 12e], for which, in experiment [2], the EC50 was > 10 µM.

For the molecule `Cc1cc(C2=C(c3ccc(O)c(C)c3)[C@H]3[C@@H](S(=O)(=O)Oc4cccc5ccccc45)C[C@@H]2[S+]3[O-])ccc1O` (relative stereo) [Compound 12f], the EC50 in experiment [2] is > 10 µM.

With `CCOC(=O)[C@@H]1[C@H](C(=O)OCC)[C@@H]2C(c3ccc(O)c(C)c3)=C(c3ccc(O)c(C)c3)[C@H]1[S+]2[O-]` (relative stereo) [Compound 12i], the EC50 in experiment [1] and in experiment [2] was > 10 µM throughout.

On to `O=S(=O)(Oc1ccc(O)cc1)[C@H]1C[C@H]2C(c3ccccc3)=C(c3ccccc3)[C@@H]1[S+]2[O-]` (relative stereo) [Compound 13], for which the EC50 in experiment [1] and in experiment [2] was > 10 µM each time.

As for `Cc1ccc(C2=C(c3ccc(C)cc3)[C@H]3[C@@H](S(=O)(=O)Oc4ccc(O)cc4)C[C@@H]2[S+]3[O-])cc1` (relative stereo) [Compound 14], in experiment [2], the EC50 is > 10 µM.

The values are drawn from article PMC3297713 (Journal of Medicinal Chemistry, 2012).
